In PMC7397249, “Properly Substituted Cyclic Bis-(2-bromobenzylidene) Compounds Behaved as Dual p300/CARM1 Inhibitors and Induced Apoptosis in Cancer Cells” (Molecules, 2020):

Experiments:
CARM1 = biological target: T1, CARM1 (Homo sapiens, UniProt Q86X55); test: CARM1 assay (histone H3, 3H-SAM); assay type: biochemical
T1 sequence (Q86X55 1-608): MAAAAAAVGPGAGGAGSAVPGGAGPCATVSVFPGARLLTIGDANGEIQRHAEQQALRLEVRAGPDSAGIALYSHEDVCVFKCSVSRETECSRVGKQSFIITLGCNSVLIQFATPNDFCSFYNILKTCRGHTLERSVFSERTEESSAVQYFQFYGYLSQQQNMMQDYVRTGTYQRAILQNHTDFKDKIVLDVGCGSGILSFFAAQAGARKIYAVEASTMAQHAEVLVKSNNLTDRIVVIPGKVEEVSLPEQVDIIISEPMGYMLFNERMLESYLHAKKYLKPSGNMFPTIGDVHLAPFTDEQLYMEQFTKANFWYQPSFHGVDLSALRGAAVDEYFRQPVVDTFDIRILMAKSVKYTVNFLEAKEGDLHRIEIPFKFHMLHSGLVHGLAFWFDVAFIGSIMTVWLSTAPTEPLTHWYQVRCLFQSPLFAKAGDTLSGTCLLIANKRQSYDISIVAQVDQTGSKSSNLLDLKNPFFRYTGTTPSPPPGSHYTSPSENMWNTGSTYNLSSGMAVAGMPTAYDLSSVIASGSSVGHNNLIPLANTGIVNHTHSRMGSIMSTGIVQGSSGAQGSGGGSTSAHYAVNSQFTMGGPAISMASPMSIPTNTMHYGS
Description: Histone H3 (5 μM) was added in freshly prepared reaction buffer (50 mM Tris-HCl (pH 8.5), 5 mM MgCl2, 50 mM NaCl, 0.01% Brij35, 1 mM DTT, 1% DMSO). CARM1 was delivered into the substrate solution and the mixture was mixed gently. Afterwards, the tested compounds dissolved in DMSO were delivered into the enzyme/substrate reaction mixture by using Acoustic Technology (Echo 550, LabCyte Inc. Sunnyvale, CA) in nanoliter range, and 1 µM ^3H-SAM was also added into the reaction mixture to initiate the reaction. The reaction mixture was incubated for 1 h at 30 °C and then it was delivered to filter-paper for detection. The data were analyzed using Excel and GraphPad Prism software for IC50 curve fits. The experiments were performed in triplicate.

PCAF = biological target: T2, PCAF (Homo sapiens, UniProt Q92831); test: HotSpot HAT activity assay, PCAF; assay type: biochemical; settings: 10-dose, from 200 μM; histone H3, [acetyl-3H]-acetyl-CoA
T2 construct: PCAF (aa 492–658, 250 nM); purchased Reaction Biology Corporation
Description: (§1) The newly synthesized compounds 4a–n were tested to determine their effects against acetylation and methylation epigenetic targets. First, 4a–n were screened in vitro against the two HAT enzymes p300 and PCAF. […] To determine the activity against SIRT1 and -2, 4a–n were tested starting from 200 μM solutions using a modified Fluor de Lys fluorescence-based assay with amino acids 379–382 (Arg-His-Lys-Lys(Ac)) of human p53 conjugated with aminomethylcoumarin as substrate and NAD^+ as co-substrate. […] Furthermore, 4a–n were tested against a human five-membered Polycomb repressive complex 2 (PRC2) containing EZH2, embryonic ectoderm development (EED), suppressor of zeste 12 (SUZ12), RbAp48, and adipocyte enhancer-binding protein (AEBP2), to assess their capability to inhibit the catalytic unit EZH2.
The effect of tested derivatives on the catalytic activity of p300 and PCAF was determined in a HotSpot HAT activity assay by Reaction Biology Corporation (Malvern, PA, USA) according to the company’s standard operating procedure. In brief, the recombinant catalytic domains of PCAF (aa 492–658, 250 nM) or p300 (aa 1284–1673, 30 nM) were incubated with histone H3 as substrate (5 µM) and [Acetyl-^3H]-Acetyl Coenzyme A (3 µM) as an acetyl donor in reaction buffer (50 mM Tris-HCl (pH 8.0), 50 mM NaCl, 0.1 mM EDTA, 1 mM DTT, 1 mM PMSF, 1% DMSO) for 1 h at 30 °C in the presence or absence of a dose titration of the compounds. The reaction mixture was delivered to filter-paper for detection. IC50 values were analyzed using Excel and GraphPad Prism 6.0 software (GraphPad Software Inc., San Diego, CA, USA). The experiments for p300 were performed in triplicate.

SIRT2 = biological target: T3, SIRT2 (Homo sapiens, UniProt Q8IXJ6); test: Modified Fluor de Lys fluorescence-based assay, SIRT2; assay type: biochemical; settings: from 200 μM; p53 379-382 AMC substrate, NAD+
T3 construct: host or cells: E. coli
Description: as §1
The SIRT inhibition assay was performed using human recombinant SIRT1 and SIRT2 produced in E. coli. Compounds were tested using a modified Fluor de Lys fluorescence-based assay kit based on the method described in the BioMol product sheet (AK-555, AK-556, Milan, Italy). […] The second stage is initiated by the addition of the Developer II (KI176), including nicotinamide (NAM), nicotinamide that stops the SIRT1/2 activity, and the fluorescent signal is produced. The fluorescence was measured on a fluorometric reader (Infinite 200 TECAN, Männedorf, Switzerland) with excitation set at 360 nm and emission detection set at 460 nm.

MCF-7 cells = test: Cell cycle and apoptosis (sub-G1) analysis by FACS in MCF-7 cells; assay type: cell-based, human; settings: 5 μM, 30 h
Description: Compounds 4a–n were tested at 5 μM for 30 h in NB4 […] and U937 AML cells among hematological cancers, and in MCF-7 breast cancer and SH-SY5Y neuroblastoma cells among solid cancers, to determine their effects in cell cycle and apoptosis induction.
In the same cell lines, the induction of apoptosis has been evaluated through the percentage of the sub-G1 peaks.
For colorimetric exclusion, the cells (2 × 10^5 cells/mL) were plated in multiwells in triplicate. After stimulations at different times and concentrations, cells were diluted in the ratio 1:1 in Trypan Blue (Sigma) and counted with an optical microscope. For cell cycle analyses, cells were plated (2 × 10^5 cells/mL) and were harvested, centrifuged at 1200 rpm for 5 min and resuspended in 500 μL of a hypotonic solution containing 1× PBS, Sodium Citrate 0.1%, 0.1% NP-40, RNAase A and […] Propidium Iodide (PI). After 30 min at room temperature (RT) in the dark, samples were acquired by FACS-Calibur (BD Bioscences, San Jose, CA, USA) using CellQuest software (BD Biosciences). The percentage in different phases of the cell cycle was determined by ModFit LT V3 software (Verity). All experiments were performed in triplicate. Cell death was measured as percentage of cells in sub-G1 phase as in [30].

T3 sequence (Q8IXJ6 whole entry): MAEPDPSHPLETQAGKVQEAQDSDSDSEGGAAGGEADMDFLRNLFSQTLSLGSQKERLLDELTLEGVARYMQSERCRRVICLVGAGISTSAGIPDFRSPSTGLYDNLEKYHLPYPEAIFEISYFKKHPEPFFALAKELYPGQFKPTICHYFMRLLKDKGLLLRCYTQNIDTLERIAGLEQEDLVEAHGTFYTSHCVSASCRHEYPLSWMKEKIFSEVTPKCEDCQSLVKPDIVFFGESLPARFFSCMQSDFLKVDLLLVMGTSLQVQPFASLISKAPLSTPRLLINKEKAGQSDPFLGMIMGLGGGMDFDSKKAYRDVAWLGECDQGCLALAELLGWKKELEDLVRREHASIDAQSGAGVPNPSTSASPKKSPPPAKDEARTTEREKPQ
T2 sequence (Q92831 492-658): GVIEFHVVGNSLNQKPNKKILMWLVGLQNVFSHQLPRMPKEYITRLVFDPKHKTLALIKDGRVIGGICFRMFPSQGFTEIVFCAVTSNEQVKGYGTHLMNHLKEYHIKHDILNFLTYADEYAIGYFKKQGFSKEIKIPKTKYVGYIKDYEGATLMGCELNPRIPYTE

Compound: O=C1/C(=C/c2ccccc2Br)CN(Cc2ccccc2)C/C1=C\c1ccccc1Br [Compound 4e, 1-benzyl-3,5-bis((E)-2-bromobenzylidene)piperidin-4-one]
- IC50 (CARM1): 6.5 ± 0.86 µM
- IC50 (PCAF): > 200 µM
- IC50 (SIRT2): > 200 µM
- cell cycle: block in G1/S phase with almost total absence of cells in the G2/M phase (MCF-7 cells): almost total absence of cells

Compound: O=C1/C(=C/c2ccccc2Br)CN(CCc2ccccc2)C/C1=C\c1ccccc1Br [Compound 4f, 3,5-Bis((E)-2-bromobenzylidene)-1-phenethylpiperidin-4-one]
- IC50 (CARM1): 18.5 ± 0.9 µM
- IC50 (PCAF): > 200 µM
- IC50 (SIRT2): > 200 µM

Compound: O=C1/C(=C/c2ccccc2Br)CN(CCCc2ccccc2)C/C1=C\c1ccccc1Br [Compound 4g, 3,5-Bis((E)-2-bromobenzylidene)-1-(3-phenylpropyl)piperidin-4-one]
- IC50 (CARM1): 12.6 ± 2.6 µM
- IC50 (PCAF): > 200 µM
- IC50 (SIRT2): > 200 µM

Compound: O=C1/C(=C/c2ccccc2Br)CN(CC(=O)c2ccccc2)C/C1=C\c1ccccc1Br [Compound 4h, 3,5-Bis((E)-2-bromobenzylidene)-1-(2-oxo-2-phenylethyl)piperidin-4-one]
- IC50 (CARM1): 5.52 ± 0.78 µM
- IC50 (PCAF): > 200 µM
- IC50 (SIRT2): > 200 µM
- induction of apoptosis, % sub-G1 peaks (MCF-7 cells): around 25%

Compound: O=C1/C(=C/c2ccccc2Br)CN(CCCC(=O)c2ccccc2)C/C1=C\c1ccccc1Br [Compound 4j, 3,5-Bis((E)-2-bromobenzylidene)-1-(4-oxo-4-phenylbutyl)piperidin-4-one]
- IC50 (CARM1): 4.8 ± 1.72 µM
- IC50 (PCAF): > 200 µM
- IC50 (SIRT2): > 200 µM
- cell cycle: block in G1/S phase with almost total absence of cells in the G2/M phase (MCF-7 cells): almost total absence of cells

Compound: O=C1/C(=C/c2ccccc2Br)CN(C(=O)c2ccccc2)C/C1=C\c1ccccc1Br [Compound 4k, 1-Benzoyl-3,5-bis((E)-2-bromobenzylidene)piperidin-4-one]
- IC50 (CARM1): 1.33 ± 0.14 µM
- IC50 (PCAF): > 200 µM
- IC50 (SIRT2): > 200 µM
- cell cycle: block in G1/S phase with almost total absence of cells in the S phase (MCF-7 cells): almost total absence of cells

Compound: O=C1/C(=C/c2ccccc2Br)CN(C(=O)Cc2ccccc2)C/C1=C\c1ccccc1Br [Compound 4l, 3,5-Bis((E)-2-bromobenzylidene)-1-(2-phenylacetyl)piperidin-4-one]
- IC50 (CARM1): 0.43 ± 0.12 µM
- IC50 (PCAF): > 200 µM
- IC50 (SIRT2): > 200 µM
- cell cycle: block in G1/S phase with almost total absence of cells in the S phase (MCF-7 cells): almost total absence of cells

Compound: O=C1/C(=C/c2ccccc2Br)CN(C(=O)CCc2ccccc2)C/C1=C\c1ccccc1Br [Compound 4m, 3,5-Bis((E)-2-bromobenzylidene)-1-(3-phenylpropanoyl)piperidin-4-one]
- IC50 (CARM1): 0.79 ± 0.06 µM
- IC50 (PCAF): > 200 µM
- IC50 (SIRT2): > 200 µM
- cell cycle: block in G1/S phase with almost total absence of cells in the G2/M phase (MCF-7 cells): almost total absence of cells

Compound: O=C1/C(=C/c2ccccc2Br)CN(C(=O)C=Cc2ccccc2)C/C1=C\c1ccccc1Br [Compound 4n, 3,5-Bis((E)-2-bromobenzylidene)-1-cinnamoylpiperidin-4-one]
- IC50 (CARM1): 7.14 ± 2.54 µM
- IC50 (PCAF): > 200 µM
- IC50 (SIRT2): > 200 µM
- cell cycle: block in G1/S phase with almost total absence of cells in the G2/M phase (MCF-7 cells): almost total absence of cells
- cell cycle: block in G1/S phase with almost total absence of cells in the S phase (MCF-7 cells): almost total absence of cells
